Laboratory results: ChEMBL document CHEMBL1134117, “Synthesis of substituted 5[H]phenanthridin-6-ones as potent poly(ADP-ribose)polymerase-1 (PARP1) inhibitors” (Bioorg Med Chem Lett, 2001)

Target: Poly [ADP-ribose] polymerase 1 (Homo sapiens, UniProt P09874)
Experiment: Inhibitory concentration against purified recombinant human Poly (ADP-ribose) polymerase 1

Poly [ADP-ribose] polymerase 1, sequence (P09874 whole entry): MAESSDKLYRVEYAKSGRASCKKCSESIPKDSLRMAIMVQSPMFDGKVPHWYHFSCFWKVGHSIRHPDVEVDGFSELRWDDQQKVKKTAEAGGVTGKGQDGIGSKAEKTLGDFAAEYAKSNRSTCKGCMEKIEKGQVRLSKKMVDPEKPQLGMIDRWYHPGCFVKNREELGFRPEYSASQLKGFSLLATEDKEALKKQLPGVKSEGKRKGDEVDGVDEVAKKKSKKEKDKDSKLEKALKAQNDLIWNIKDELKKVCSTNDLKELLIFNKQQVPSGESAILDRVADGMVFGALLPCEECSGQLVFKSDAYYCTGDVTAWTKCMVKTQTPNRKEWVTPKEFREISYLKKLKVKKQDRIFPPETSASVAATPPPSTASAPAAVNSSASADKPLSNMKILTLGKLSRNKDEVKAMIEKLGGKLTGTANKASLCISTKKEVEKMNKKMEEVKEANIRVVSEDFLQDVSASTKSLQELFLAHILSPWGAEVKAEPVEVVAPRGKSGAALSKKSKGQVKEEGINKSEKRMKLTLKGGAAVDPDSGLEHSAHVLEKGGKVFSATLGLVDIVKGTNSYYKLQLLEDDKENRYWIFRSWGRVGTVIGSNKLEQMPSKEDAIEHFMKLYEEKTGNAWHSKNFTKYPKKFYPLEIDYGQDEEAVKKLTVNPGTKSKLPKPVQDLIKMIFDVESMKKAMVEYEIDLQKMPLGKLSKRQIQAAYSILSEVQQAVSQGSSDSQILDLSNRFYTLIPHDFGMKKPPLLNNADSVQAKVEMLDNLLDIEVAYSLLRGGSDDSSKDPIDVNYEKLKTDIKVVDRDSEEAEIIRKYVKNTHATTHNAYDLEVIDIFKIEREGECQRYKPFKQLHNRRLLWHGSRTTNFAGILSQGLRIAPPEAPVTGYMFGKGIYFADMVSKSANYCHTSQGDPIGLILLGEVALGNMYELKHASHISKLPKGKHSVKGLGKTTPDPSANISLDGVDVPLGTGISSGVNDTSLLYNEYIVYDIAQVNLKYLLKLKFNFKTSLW

IC50 [nM] | Structure (SMILES)
180 | Nc1ccc2[nH]c(=O)c3ccccc3c2c1
136 | Cc1cccc2c(=O)[nH]c3cc(C(F)(F)F)c([N+](=O)[O-])cc3c12
180 | Nc1cc2[nH]c(=O)c3ccccc3c2cc1N
> 100000 | O=S(=O)(O)c1ccc2c(c1)nc(O)c1cc(S(=O)(=O)O)ccc12
156 | O=c1[nH]c2ccc([N+](=O)[O-])cc2c2ccccc12
10 | O=c1[nH]c2cc(S(=O)(=O)O)ccc2c2ccc(F)cc12
57 | O=C(O)c1ccc2c(c1)[nH]c(=O)c1ccccc12
92 | Cc1cccc2c(O)nc3cc(F)ccc3c12
> 60000 | O=C(O)c1cccc2c(O)nc3ccccc3c12
520 | O=c1[nH]c2ccccc2c2ccccc12
